Laboratory results as given in patent US10059668B2 (Mirati Therapeutics, Inc., priority 2015, dated 2018).

Tests used:
[1] = target: purified N-terminal truncated human LSD1 enzyme (aa 151-852) (Homo sapiens (Human), UniProt O60341); assay: LSD1 fluorescence coupling enzymatic assay (horseradish peroxidase/Amplex Red); type: biochemical; details: 50 nM LSD1, 30 min pre-incubation, 10 μM histone 3.3 peptide (aa 1-21), 10-point dose-response; read-out: IC50 (nM), Inhibition of LSD1 Activity
MV4-11 cells = assay: Inhibition of LSD1-mediated cellular proliferation, CellTiter Glo luminescence assay; type: cell-based, human; details: Day 7, cell viability by CellTiter Glo

| Compound | IC50 [1] [nM] | EC50 (MV4-11 cells; Homo sapiens, 168 h) [nM] | EC50 (MV4-11 cells) [nM] |
| --- | --- | --- | --- |
| CS(=O)(=O)NC(=O)/C=C/c1ccc(CN2CCC(N[C@@H]3C[C@H]3c3ccccc3)CC2)cc1 [Example 15, (E)-N-(Methylsulfonyl)-3-(4-((4-(((1R,2S)-2-phenylcyclopropyl)amino)piperidin-1-yl)methyl)phenyl)acrylamide] | 10 | – | – |
| C(=C\c1nnn[nH]1)/c1cccc(CN2CCC(N[C@@H]3C[C@H]3c3ccccc3)CC2)c1 (relative stereo) [Example 14] | 118 | – | 174 |
| CS(=O)(=O)NC(=O)Cc1ccc(CN2CCC(CN[C@@H]3C[C@H]3c3ccccc3)CC2)cc1 [Example 57] | 44 | 1 | – |
| C(=C\c1cccc(CN2CCC(N[C@@H]3C[C@H]3c3ccccc3)CC2)c1)/c1ccccc1 (relative stereo) [Example 13, N-(trans-2-phenylcyclopropyl)-1-(3-((E)-styryl)benzyl)piperidin-4-amine] | 17 | 37 | – |
| CS(=O)(=O)NC(=O)c1ccc(CN2CCC(CN[C@@H]3C[C@H]3c3ccccc3)CC2)cc1 [Example 53, N-(Methylsulfonyl)-4-((4-((((1R,2S)-2-phenylcyclopropyl)amino)methyl)piperidin-1-yl)methyl)benzamide] | 27 | 19 | – |
| O=C(/C=C/c1ccc(CN2CCC(CN[C@@H]3C[C@H]3c3ccccc3)CC2)cc1)NS(=O)(=O)c1ccccc1 [Example 48, (E)-3-(4-((4-((((1R,2S)-2-Phenylcyclopropyl)amino)methyl)piperidin-1-yl)methyl)phenyl)-N-(phenylsulfonyl)acrylamide] | 33 | 9 | – |

More lines, now with the values ahead:

| IC50 [1] [nM] | EC50 (MV4-11 cells; Homo sapiens, 168 h) [nM] | EC50 (MV4-11 cells) [nM] | Compound |
| --- | --- | --- | --- |
| 25 | 30 | – | CS(=O)(=O)NC(=O)Cc1ccc(CN2CCC(N[C@@H]3C[C@H]3c3ccccc3)CC2)cc1 [Example 35, N-(Methylsulfonyl)-2-(4-((4-(((1R,2S)-2-phenylcyclopropyl)amino)piperidin-1-yl)methyl)phenyl)acetamide] |
| 23 | – | 32 | C(=C\c1ccc(CN2CCC(N[C@@H]3C[C@H]3c3ccccc3)CC2)cc1)/c1ccccc1 (relative stereo) [Example 12] |
| 30 | – | – | CS(=O)(=O)NC(=O)/C=C/c1ccc(CN2CCC(N[C@@H]3C[C@H]3c3ccccc3)CC2)cc1 (relative stereo) [Example 2, (E)-N-(Methylsulfonyl)-3-(4-((4-(((trans)-2-phenylcyclopropyl)amino)piperidin-1-yl)methyl)phenyl)acrylamide] |
| – | 26 | – | CS(=O)(=O)NC(=O)/C=C/c1ccc(CN2CCC(CN[C@@H]3C[C@H]3c3ccccc3)CC2)cc1 [Example 49, (E)-N-(methylsulfonyl)-3-(4-((4-((((1R,2S)-2-phenylcyclopropyl)amino)methyl)piperidin-1-yl)methyl)phenyl)acrylamide] |
| 15 | – | – | CONC(=O)/C=C/c1ccc(CN2CCC(N[C@@H]3C[C@H]3c3ccccc3)CC2)cc1 (relative stereo) [Example 1, (E)-N-Methoxy-3-(4-((4-(((trans)-2-phenylcyclopropyl)amino)piperidin-1-yl)methyl)phenyl)acrylamide] |
| 3 | 60 | – | CS(=O)(=O)NC(=O)c1ccc(CN2CCC(N[C@@H]3C[C@H]3c3ccccc3)CC2)cc1 [Example 34, N-(Methylsulfonyl)-4-((4-(((1R,2S)-2-phenylcyclopropyl)amino)piperidin-1-yl)methyl)benzamide] |
